inhibition, IC50 and Kd data for 9 molecules are collected here from patent publication EP0450761A1, “Spirocyclic oxytocin antagonists” (MERCK & CO. INC., priority 1990, dated 1991).

The target in one experiment is T1, AVP-V₁ sites (Rattus norvegicus, UniProt P30560).
T1 construct: a crude membrane preparation of male rat liver (AVP-V₁ sites); from tissue; host or cells: male rat liver, crude membrane preparation
The experiment is described as follows: [³H]AVP radioligand binding, crude membrane preparation of male rat liver (AVP-V₁ sites). Particulars: for inhibition at 10 µM: 10 µM test compound, % of specific [³H]AVP binding inhibited (liver), read-out: Inhibition Vasopressin V1 % inhibition @ 10; for IC50: 1 nM [³H]AVP, rat liver membranes, 30 min at 30°C, read-out: Inhibition Vasopressin V1 IC50. From the text: (§1) *Inhibition is expressed either as IC₅₀ in µM, or as % inhibition @ a specified concentration of the test compound (µM). The IC₅₀ is the concentration of the text compound which inhibits specific binding by 50%. The % inhibition at a specified concentration of the test compound is that percentage of specific binding which is inhibited by said concentration of said test compound.

The next experiment has as its target T2, AVP-V₂ sites (Rattus norvegicus, UniProt Q00788).
T2 construct: male rat liver (AVP-V₁ sites) or kidney medulla (AVP-V₂ sites); from tissue; host or cells: male rat kidney medulla, crude membrane preparation
The experiment is described as follows: [³H]AVP radioligand binding, crude membrane preparation of male rat kidney medulla (AVP-V₂ sites). Particulars: for inhibition at 10 µM: 10 µM test compound, % of specific [³H]AVP binding inhibited (kidney), read-out: Inhibition Vasopressin V2 % inhibition @ 10.
Excerpt: as §1

The target of a further experiment is T3, uterine OT receptors (Rattus norvegicus, UniProt P70536).
T3 construct: a crude membrane preparation of uteri; from tissue; host or cells: uterus of DES-treated rats, crude membrane preparation
T3 sequence (P70536 1-388): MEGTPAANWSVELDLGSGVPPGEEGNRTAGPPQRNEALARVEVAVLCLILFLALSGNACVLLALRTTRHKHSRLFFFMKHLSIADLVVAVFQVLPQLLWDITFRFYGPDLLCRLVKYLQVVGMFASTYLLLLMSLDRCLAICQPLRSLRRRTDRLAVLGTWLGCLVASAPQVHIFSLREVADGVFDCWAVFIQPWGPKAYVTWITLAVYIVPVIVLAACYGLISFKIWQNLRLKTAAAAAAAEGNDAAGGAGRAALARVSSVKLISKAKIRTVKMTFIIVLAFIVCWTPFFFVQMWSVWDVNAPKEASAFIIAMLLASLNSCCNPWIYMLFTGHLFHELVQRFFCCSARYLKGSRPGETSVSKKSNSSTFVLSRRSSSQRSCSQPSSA
Nature of the experiment: [³H]OT radioligand binding to uterine OT receptors, crude membrane preparation of uteri from DES-treated rats. Here is the method:
Competition studies were conducted at equilibrium (60 min; 22°C) using 1 nM [³H]OT in the following assay buffer: 50 mM Tris-HCl, 5 mM MgCl₂, and 0.1% BSA, pH 7.4.
as §1

T2 sequence (Q00788 whole entry): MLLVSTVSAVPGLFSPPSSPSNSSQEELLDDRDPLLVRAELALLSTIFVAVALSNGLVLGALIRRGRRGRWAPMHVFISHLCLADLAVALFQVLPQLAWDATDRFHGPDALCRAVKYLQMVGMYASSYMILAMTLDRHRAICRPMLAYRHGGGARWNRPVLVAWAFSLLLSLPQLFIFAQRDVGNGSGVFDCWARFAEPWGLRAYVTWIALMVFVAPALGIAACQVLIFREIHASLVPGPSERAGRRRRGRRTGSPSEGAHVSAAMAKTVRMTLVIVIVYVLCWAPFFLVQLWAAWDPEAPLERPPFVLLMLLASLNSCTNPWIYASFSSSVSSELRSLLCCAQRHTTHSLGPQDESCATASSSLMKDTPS
T1 sequence (P30560 whole entry): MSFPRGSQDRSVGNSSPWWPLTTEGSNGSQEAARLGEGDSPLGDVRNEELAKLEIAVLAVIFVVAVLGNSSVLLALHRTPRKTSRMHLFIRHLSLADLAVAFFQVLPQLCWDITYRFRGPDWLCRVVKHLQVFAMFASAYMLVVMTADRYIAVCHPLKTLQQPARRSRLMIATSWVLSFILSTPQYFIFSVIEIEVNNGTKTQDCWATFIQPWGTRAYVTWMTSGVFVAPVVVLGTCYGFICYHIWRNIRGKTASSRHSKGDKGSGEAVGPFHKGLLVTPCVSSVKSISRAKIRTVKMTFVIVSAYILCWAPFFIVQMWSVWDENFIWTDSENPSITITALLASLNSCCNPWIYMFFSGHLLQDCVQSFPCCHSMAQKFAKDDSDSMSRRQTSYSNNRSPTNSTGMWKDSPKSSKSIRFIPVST

Broadly, the inhibition is the change of the read-out against control, counted positive when it falls. Consider `CC1(C)[C@@H]2CC[C@@]1(CS(=O)(=O)N1CCC3(C=Cc4ccccc43)CC1)C(=O)C2` [Example 6], for which the inhibition at 10 µM on AVP-V₁ sites turned out to be 2%; on AVP-V₂ sites, 3%.
Turning to `CC1(C)[C@H]2CC[C@]1(CS(=O)(=O)N1CCC3(C=Cc4ccccc43)CC1)C(=O)C2` [Example 7], the inhibition at 10 µM was found to be 0% at AVP-V₁ sites and 6% at AVP-V₂ sites.
The IC50 is the midpoint of a concentration-inhibition curve. The molecule `CC1(C)[C@@H]2CC[C@@]1(CS(=O)(=O)N1CCC3(C=Cc4ccccc43)CC1)C(O)(c1ccccc1)C2` (stereo partly drawn) [Example 11] registered a half-inhibitory concentration (IC50) at uterine OT receptors of 490 nM.
Consider `CC1(C)[C@@H]2CC[C@@]1(CS(=O)(=O)N1CCC3(C=Cc4ccccc43)CC1)[C@](C)(O)C2` [Example 13, EXO-(1S)-1′-(((2-HYDROXY-2,7,7-TRIMETHYLBICYCLO-(2.2.1)HEPT-1-YL)METHYL)SULFONYL)SPIRO(1H-INDENE-1,4′-PIPERIDINE)], for which the inhibition at 10 µM at AVP-V₁ sites was 45%; at AVP-V₂ sites, 5%.
Regarding `CCC1(O)CC2CC[C@]1(CS(=O)(=O)N1CCC3(C=Cc4ccccc43)CC1)C2(C)C` (stereo partly drawn) [Example 15], the IC50 is 470 nM at uterine OT receptors and about 9000 nM on AVP-V₁ sites.
In the case of `COC(=O)C[C@@]1(O)C[C@H]2CC[C@]1(CS(=O)(=O)N1CCC3(C=Cc4ccccc43)CC1)C2(C)C` [Example 19, (1S(1.ALPHA.,2.ALPHA.,4.ALPHA.))-2-HYDROXY-7,7-DIMETHYL-1-((SPIRO(1H-INDENE-1,4′-PIPERIDIN)-1′-YLSULFONYL)METHYL)BICYCLO(2.2.1)HEPTANE-2-ACETIC ACID METHYL ESTER], the inhibition at 10 µM at AVP-V₁ sites stood at 54%; at AVP-V₂ sites, 20%.
With `CC1(C)[C@@H]2CC[C@@]1(CS(=O)(=O)N1CCC3(C=Cc4ccccc43)CC1)[C@@](O)(CC(=O)O)C2` [Example 20, (1S(1.ALPHA.,2.ALPHA.,4.ALPHA.))-2-HYDROXY-7,7-DIMETHYL-1-((SPIRO(1H-INDENE-1,4′-PIPERIDIN)-1′-YLSULFONYL)METHYL)-BICYCLO-(2.2.1)HEPTANE-2-ACETIC ACID], the IC50 was found to be 570 nM at uterine OT receptors; 89000 nM at AVP-V₁ sites; 83000 nM at AVP-V₂ sites (2 nM [³H]AVP, rat kidney medulla membranes, 30 min at 30°C, read-out: Inhibition Vasopressin V2 IC50).
As for `CC1(C)[C@@H]2CC[C@@]1(CS(=O)(=O)N1CCC3(C=Cc4ccccc43)CC1)C(=NO)C2` [Example 27], on uterine OT receptors, the concentration for half-maximal inhibition (IC50) stood at 490 nM. In addition, the results for the inhibition at 10 µM at AVP-V₁ sites and at AVP-V₂ sites were 52% and 21%, respectively.
With [³H]OT [reference compound], the Kd with uterine OT receptors (radioligand, uterus, read-out: Kd values obtained from saturation binding assay) was found to be 0.7 nM.
